Entries after “also recorded” stand apart in the source; their conditions may differ.
How the values were obtained:
rats = assay: Tail-flick test in rats; type: in vivo, rat
Procedure: This test was performed according to Siegfried et al. (1987). Analgesia was assessed with a tail-flick apparatus. Rats were wrapped in a towel and placed on the apparatus; the light source positioned below the tail was focused on a point 2.3 cm rostral to the tip of the tail. Deflection of the tail activated a photocell and automatically terminated the trial. Light intensity was adjusted so as to obtain a baseline tail-flick latency (TFL) of 3-6 s. A cut-off time of 10 s was used to prevent tissue damage. Briefly, the general procedure was as follows: a baseline TFL value was obtained for each animal. Following this, the rats were placed alone in a waiting cage. TFL value was measured 1 h after an i.p. injection of vehicle or DNF.

mice [1] = assay: Locomotor activity test in mice; type: in vivo, male Swiss mice; conditions: i.p.
Procedure: (§1) Adult male Wistar rats weighing 250 g were used for biochemical experiments. Adult male Swiss male weighing 25-30 g were used for pharmacological assays except for inhibitory avoidance and tail flick tests were done in rats. Animals were housed in a controlled environment, with free access to food and water and maintained on a 12 h/12 h day/night cycle.
(§2) An Opto-varimex® apparatus was used according to Viola et al. (1994). The apparatus discriminates between total and ambulatory activities. An increase in the number of transitions through the beams reflects augmented locomotor activity. In this and all following tests in mice, animals were i.p. injected with the vehicle, or with DNF 20 min before the beginning of the tests. In each session, control mice were tested in parallel with those animals receiving drug treatment.

Holeboard test in mice = type: in vivo, male Swiss mice; conditions: mouse, in vivo, ip; 10 mg/kg vs anxiolytic dose; read-out: dose decreasing holeboard parameters relative to anxiolytic dose
Procedure: as §1
(§3) The test was performed according to Viola et al. (1994) and Wolfman et al. (1994). The number of head dips and the time spent head dipping were counted during 5 min.

mice [2] = assay: Holeboard test in mice; type: in vivo, male Swiss mice; conditions: for number of head dips and time spent head-dipping: mice, i.p.
Procedure: as §1, §3

β adrenergic receptors = assay: [3H]-dihidroalprenolol binding; conditions: 20 μM; data not shown
Procedure: Additional binding studies were performed as described elsewhere: [^3 ]-prazosin binding for α1 adrenergic receptors (Medina et al., 1984), [^3 H]-dihidroalprenolol binding for β adrenergic receptors (Medina et al. 1984), [^3 H]-quinuclinidyl benzylate binding for muscarinic cholinergic receptors (Jerusalinksy et al., 1983), [^3 H]-muscimol binding for GABAλ receptors (Medina et al., 1983) and [^3 H]-8-Hydroxydipropylaminotetralin ([^3 H]--OH--DPAT) binding for serotonin (5-HTlλ) receptors (Nenonene et al., 1984).

mice [3] = assay: Elevated plus maze test in mice (Section 2); type: in vivo, male Swiss mice
Procedure: as §1, §2
The test was performed in the same session immediately after the locomotor activity measurement (Viola et al., 1994; Wolfman et al., 1994). […] A series of experiments with the injection of the selective central benzodiazepine receptor antagonist Ro 15-1788 (File and Pellow, 1986) was also carried out.

mice [4] = assay: Pentylenetetrazole (PTZ)-induced seizures; type: in vivo
Procedure: The effects of DNF on pentylenetetrazole (PTZ)--induced convulsions were evaluated according to Medina et al., (1990) with slight modifications. PTZ (200 mg/kg) was administered i.p. to mice 15 min after injection of drug or vehicle. The number of mice presenting clonic convulsions was determined.
Data are expressed as the percentage of mice presenting clonic or tonic-clonic seizures. ^3 number of animals per group.

mice [5] = assay: Elevated plus-maze test in mice (Section 1, incl. Table 1); type: in vivo, male Swiss mice; conditions: mice, i.p.
Procedure: Performance of mice on the elevated plus-maze test was used to measure anxiolytic actions in rodents, following i.p. administration of vehicle or compound (II).
The animals used in the pharmacological test were male Swiss mice from breeding stock, weighing 28-35 g. They were placed n groups of ten with free access to water and food, and maintained on 12 h/12 h day/night cycle. In all the tests the mice were i.p. injected with VEH or a solution of the drug, 15 minutes before the assay.
The elevated plus-maze set-up consisted of a maze of two open arms, 25×5 cm, crossed by two closed arms of the same dimensions, with free access to all arms from the crossing point. The closed arms had walls 35 cm high all around. The maze was suspended 50 cm from the room floor. Mice were placed on the central part of the cross facing an open arm. The number of entries and the time spent going into open and closed arms were counted during 5 minutes. […] The total exploratory activity (number of entries in both arms) was also determined.

[6] = system: benzodiazepine (BDZ-R) receptor; assay: 3H-Flunitrazepam binding to extensively washed bovine cerebral cortical membranes
Procedure: Non-specific nitration of the flavone nucleus yielded the two nitrated flavone (II) and (IIa). […] Briefly, ^3 H-FNZ binding was carried out as described by Levy de Stein, M., Medina, J. H., De Robertis E., Mol. Brain Res. 1985, 5, 9-15. In brief, for each assay, triplicate samples of the membranes, containing 0.2 to 0.4 mg protein were suspended in a final volume of 1 mL of 0.25 mM Tris-HCl buffer, pH 7.3. The incubation was carried out at 4° C. for 60 minutes with 0.6 nM ^3 -FNZ. To study the binding saturation, a range of 0.3 to 10 nM ^3 H-FNZ was used. Non-specific binding was determined in parallel incubations in the presence of 3 μM FNZ, and represented 5-15% of total. The assays were terminated by filtration under vacuum though Whatman GF/A glass-fiber filters, and three washes with 3 mL each of incubation medium. Filters were dried and counted after the addition of 5 mL of 2,5-diphenyloxazole/xylene as scintillation fluid. Bovine cerebral cortical membranes were treated substantially following the method of Medina, J. H., De Robertis, E. J., J. Neurochem. 1985, 44, 1340-1345.

For `O=c1cc(-c2cccc([N+](=O)[O-])c2)oc2ccc([N+](=O)[O-])cc12` [Compound (II), 6,3'-dinitroflavone], the “tail-flick latency (TFL)” value (rats; rats, 100 μg/kg, 1 h after i.p., median (interquartile), n=11, vehicle 3.2 s) was 3.5 s, the “TFL (in words)” value (rats; rats, i.p., 100 μg/kg) was “did not alter TFL” and the analgesic effects (rats; up to 10 mg/kg as worded) was “did not evidence anticonvulsant, myorelaxant, amnesic or analgesic effects”. For the same compound, the spontaneous ambulatory locomotion (mice [1]; 0.3 mg/kg, p<0.05) was “slight increase”, the “reduction in the locomotion” value (mice [1]; 10 mg/kg, p<0.01) was 55% and the spontaneous ambulatory locomotion (mice [1]; up to 3 mg/kg) was “no effect on spontaneous ambulatory locomotion”. The selectivity ratio (Holeboard test in mice) was 300, the “number of head dips and time spent head-dipping” value (mice [2]; 10 mg/kg, p<0.01) was “decreased both parameters” and the “number of head dips and time spent head-dipping” value (mice [2]; up to 3 mg/kg) was “did not change the number of head dips and the time spent head-dipping”. The “dose to produce similar sedative effects in comparison to DZ” value (mice [2]; ratio to diazepam, higher dose) was 10 fold, the “displacement of [3H]-dihidroalprenolol binding” value (β adrenergic receptors) was “did not displace” and the “effect of Ro 15-1788 on DNF anxiolytic effect” value (mice [3]; mice, DNF 30 μg/kg + Ro 15-1788 1 mg/kg, listed as DNF, 1 mg/kg) was “blocked by the injection of Ro 15-1788; also recorded: blocked by the administration of the selective benzodiazepine antagonist Ro 15-1788”. The total arm entries (mice [3]; mice, i.p., 30 μg/kg) was “No differences were observed in the total arm entries”, the “percentage of entries in the open arms” value (mice [3]; mice, i.p., 30 μg/kg, p<0.01) was “increased the percentage of entries in the open arms” and the “anxiolytic potency in comparison to DZ” value (mice [3]; ratio to diazepam) was 30 times. For the same compound, the “% of convulsing mice” value (mice [4]; DNF 0.03 mg/kg, n=6) was 100%, the “% of convulsing mice” value (mice [4]; DNF 0.1 mg/kg, n=12) was 75% and the “% of convulsing mice” value (mice [4]; DNF 0.3 mg/kg, n=15) was 80%. For the same compound, the “% of convulsing mice” value (mice [4]; DNF 1.0 mg/kg, n=13) was 92.4%, the “% of convulsing mice” value (mice [4]; DNF 3.0 mg/kg, n=5) was 100% and the “% of convulsing mice” value (mice [4]; DNF 6.0 mg/kg, n=7) was 100%. For the same compound, the “prevention of PTZ-induced seizures” value (mice [4]; mice, 30 μg/kg-6 mg/kg, PTZ 200 mg/kg) was “did not prevent the seizures”, the anticonvulsant effects (mice [4]; up to 10 mg/kg) was “did not evidence anticonvulsant” and the “percentage of the time spent in the open arms” value (mice [5]; 3 and 30 μg/kg) was “enhanced the percentage of the time spent in the open arms”. The total arm entries (mice [5]; doses 0 to 30 μg/kg) was “without affecting the total arm entries”, the “percentage of entries in the open arms” value (mice [5]; doses 0 to 30 μg/kg, 15 min before test) was “increased the percentage of entries in the open arms” and the “Scatchard analysis of saturation curves (type of interaction)” value ([6]; bovine membranes, compound (II) 20 nM (FIG. 1)) was “competitive interaction showing a decline in the apparent affinity without changes in the maximal number of sites (Bmax)”. It also gave a Ki ([6]; read-out: Ki, inhibition of 3H-FNZ binding, bovine cerebral cortical membranes, 0.6 nM 3H-FNZ, 4° C., 60 min, n=7) of 12 ± 1.7 nM.
